Measured values: PMC7395176, “Retromer stabilization results in neuroprotection in a model of Amyotrophic Lateral Sclerosis” (Nature Communications, 2020)

Tests used:
Sortilin = Sortilin fluorescence in MNs of treated G93A mice; assay type: in vivo; conditions: 10 mg/kg, day 100
Text: We next asked whether increasing VPS35/26 protein levels is sufficient to increase retromer functionality. CI-MPR is unstable in VPS26-knockout cells, and we observed a substantial reduction of CI-MPR MFI levels in MNs of vehicle-treated G93A mice compared with WT litters (Fig. 6c). […] Sortilin encodes a receptor belonging to the Vps10 family involved in Frontotemporal Dementia (FTD)[45], which shares functional homologies with MPRs and is another retromer cargo[46].
Fluorescence intensity levels of VPS35, VPS26, CI-MPR, Sortilin, CTSD and Ubiquitin were calculated using NHI-Image J software (US National Institutes of Health) according to the following protocol: stacks of confocal images were used to generate the maximal projections using the Leica Application Suite X (2.0.0.14332) software and then postprocessed by NHI-Image J to crop single NeuN^+ MNs from the ventral horn of the spinal cord. We next performed background (calculated on adjacent slices only receiving secondary antibodies) subtraction for each channel, before applying the NHI-Image J mean filter (with radius 2.0 pixels) to calculate mean NeuN fluorescence levels in individual MNs. Using this approach, we established a region of interest (ROI) to gate single MNs. On this ROI, we measured mean fluoresce levels (MFI) of target proteins.

VPS35 = VPS35 (Mus musculus, UniProt Q9EQH3+Q9QZ88); conditions: Neuro2a cells, 10 µM, 48 h, WB
Procedure: Protein extracts were collected, separated by SDS-PAGE and immunoblotted for VPS35 and the housekeeping gene β-Actin.
Neuro2a cells (ATCC® CCL-131™) were seeded in Dulbecco’s modified Eagle’s media (DMEM, Gibco) supplemented with FBS 10% (Gibco), L-glutamine (Gibco) 2 mM and penicillin/streptomycin 1% (Gibco). Depending on the experimental setting, we used 6-well, 12-well or 96-well dishes. Neuro2a were grow at 37 °C in a humidified 5% CO2 atmosphere. All experiments were carried out at least in triplicate. Compounds and transfections were done on cells showing 60–70% of confluence. Compounds were usually kept on cells for 48 h; Bortezomib (BTZ) was used at 10 nM for 6 h to inhibit proteasome.
Protein lysates from cells cultures were collected from plates receiving PBS 1× washing and subsequently the lysis buffer followed by sonication. Protein concentrations were measured by BCA protein assay kit (Thermofisher) according to the manufacturer’s recommendations. Ten µg of protein extract was loaded on 10% Mini-PROTEAN TGX Stain-Free precast gels for PAGE (Bio-Rad). Gel electrophoresis was performed at 100 V for 2 h. Gels were transferred on Immobilon®-P PVDF membrane according to the manufacturer’s instructions (Millipore). Blots were blocked in 5% BSA in Tris buffered saline plus 0.1% Tween-20 (TBS-T) for 1 h before receiving primary antibodies: goat α-VPS35 1:800 (ab10099, Abcam); rabbit α-VPS26 1:1000 (ab23892 Abcam), rabbit α-VPS26b 1:1000 (15915-1-AP, ProteinTech); rabbit α-VPS29 1:1000 (ab236796 Abcam); mouse α-βActin 1:25000 (Sigma–Aldrich); mouse α-Golgin97 1:1000 (Invitrogen); mouse α-Ubiquitin 1:500 (Merk); rabbit α-CD14 1:1000 (Bioss Inc); mouse α-Tubulin 1:5000 (Immunological Sciences MAB-80143) overnight at 4 °C on shaker. Following several washes with TBS-T, blots were incubated in appropriate HRP-labeled secondary antibodies (Bio-Rad) for 1 h at room temperature. Visualization of protein bands was obtained using ClarityMax-ECL (Bio-Rad) according to the manufacturer’s instructions and images were acquired on ChemiDoc (Bio-Rad). Quantifications were done using the Image Lab 6.0.1 software (Bio-Rad).

SOD1^G93A aggregates = experiment: Treatment of G93A mice from day 83 to day 103: motor performance, SOD1 aggregates (blue-native PAGE); assay type: in vivo; conditions: 10 mg/kg daily
Text: SOD1 mutations increase its propensity to aggregate in cells. We checked whether compound 2a could reduce the accumulation of SOD1^G93A aggregates in vivo. Starting at postnatal day 83, we injected G93A mice and WT littermates daily with compound 2a. We scored motor performances in vehicle- and compound 2a-treated G93A mice until day 103. […] We resolved SC protein extracts by blue-native polyacrylamide gel electrophoresis, and probing them with anti-SOD1 antibodies we observed high molecular weight smears in G93A mice that were absent in WT litters. The intensity of such high MW entities was lowered in G93A mice treated with compound 2a (Supplementary Fig. 13b, c).
G93A mice and their WT litters were injected daily with vehicle or compound 2a (10 mg/kg, from day 83 to day 103). […] We incubated 250 µL of each extract with 100 mM Iodoacetamide (Sigma–Aldrich). […]
n=4 independent mice/group, data are collected from 1 experiment). […] Dividing black linesmark lanes cropped from the same filter;c, quantifications of the mutant forms of the SOD1 from mice treated with sham or with compound 2a (G93A-v: n=6 independent mice, G93A-2a: n=6 independent mice, data are derived from 2 independent experiments). […]

Cathepsin D (CTSD) = Cathepsin D (CTSD) levels in treated G93A mice; assay type: in vivo; conditions: 10 mg/kg, day 100
Text: We next investigated Cathepsin D (CTSD) expression and distribution in G93A mice, since its trafficking involves the retromer complex. In humans, CTSD maturation starts with a pre-pro-CTSD then converted to pro-CTSD (52 kDa) in the endoplasmic reticulum. Recycling of pro-CTSD and its downstream migration to acidic compartments involves CI-MPR and the retromer pathway. Pro-CTSD is further processed to an intermediate form in late endosomes (48 kDa), and finally converted to mature CTSD (34 kDa) in lysosomes. VPS35 inactivation[48] or VPS26 knockdown[21] affect CTSD maturation. We scored CTSD levels in lumbar SC extracts from vehicle-treated WT and vehicle- or 2a-treated G93A mice. […] We next analyzed CTSD levels and CTSD^+ puncta in MNs by confocal microscopy, observing their significant reduction in MNs of vehicle-treated G93A mice that was restored by treatment with compound 2a (Fig. 6f).
Fluorescence intensity levels of VPS35, VPS26, CI-MPR, Sortilin, CTSD and Ubiquitin were calculated using NHI-Image J software (US National Institutes of Health) according to the following protocol: stacks of confocal images were used to generate the maximal projections using the Leica Application Suite X (2.0.0.14332) software and then postprocessed by NHI-Image J to crop single NeuN^+ MNs from the ventral horn of the spinal cord. […] On this ROI, we measured mean fluoresce levels (MFI) of target proteins.

With `NC(N)=N/N=C/c1cccc(/C=N/N=C(N)N)c1` [compound 2a, phenyl-1,3-bis-guanylhydrazone] the “Sortilin MFI levels in MNs” value (Sortilin) was “significantly increased”, the VPS35 levels (VPS35) was “increased VPS35 levels” and the “motor deficits (latency to fall)” value (SOD1^G93A aggregates) was “general attenuation of motor deficits”. The “intensity of high MW SOD1 entities (blue-native PAGE)” value (SOD1^G93A aggregates; SC extracts) was “lowered”, the “CTSD levels and CTSD+ puncta in MNs (confocal)” value (Cathepsin D (CTSD)) was “restored” and the “levels of mature CTSD (WB, lumbar SC extracts)” value (Cathepsin D (CTSD)) was “significantly increased”.
